Read-outs that look alike come from different tables or passages of the source. Where no end group is shown, it is not given here.
Columns and labels:
adipose tissue = assay: Cellular infiltrate / inflammatory process in adipose tissue of mice fed a high-fat diet; type: in vivo, mice (C57BL/6JN)
Protocol: (§1) For all the in vivo testing, male mice of the C57BL/6JN strain between 8 to 10 weeks of age were used, housed in groups of 3 to 5 mice per cage with food and water ad libitum in ventilated racks, and whose microbiota were unified for 4 weeks.
(§2) The mice received either 200 μL of a phosphate buffer solution (PBS) at pH 7.5 (as a vehicle), or 200 μL of the PBS solution, with each of the intragastric treatments daily for 12 weeks. They were fed either a Normal Diet (DN, Harlan, Teklad 2018SX) with 18% of the calories coming from fat, or a High-Fat Diet (DAG, Research Diets, D12491), with 60% of the calories coming from fat.
(§3) All the mice were randomly divided into five experimental groups in order to study the effect of SEQ ID NO: 3 and SEQ ID NO: 2 correctly: • Group 1—Mice with DN that received 200 μl of PBS intragastrically. • Group 2—Mice with DAG that received 200 μl of PBS intragastrically. • Group 3—Mice with DAG that received 200 μl of PBS with SEQ ID NO: 3 intragastrically at a dose of: 2.5 μg/mouse. • Group 4—Mice with DAG that received 200 μl of PBS with SEQ ID NO: 2 intragastrically at a dose of 0.6 μg/mouse (high dose). • Group 5—Mice with DAG that received 200 μl of PBS with SEQ ID NO: 2 intragastrically at a dose of 0.2 μg/mouse (low dose).
(§4) To determine the effect of the peptides SEQ ID NO: 2 and SEQ ID NO: 3 in attenuating the inflammatory process in adipose tissue, the cellular infiltrate of the adipose tissue of the mice was quantified after they had been fed DAG.

leptin = assay: Leptin levels in mice fed a high-fat diet; type: in vivo, mice (C57BL/6JN); conditions: 12 weeks; compared to mice fed only DAG
Protocol: as §1, §2
as §3, with “(low dose). […]” for “(low dose).”

mice fed a high-fat diet [1] = assay: Insulin resistance test (PRI) in mice fed a high-fat diet; type: in vivo, mice (C57BL/6JN); conditions: 12 weeks; intragastric daily; SEQ ID NO: 3 2.5 μg/mouse, SEQ ID NO: 2 0.6 or 0.2 μg/mouse
Protocol: as §1
(§5) The mice received either 200 μL of a phosphate buffer solution (PBS) at pH 7.5 (as a vehicle), or 200 μL of the PBS solution, with each of the intragastric treatments daily for 12 weeks. They were fed either a Normal Diet (DN, Harlan, Teklad 2018SX) with 18% of the calories coming from fat, or a High-Fat Diet (DAG, Research Diets, D12491), with 60% of the calories coming from fat. […]
The mice were subjected to fasting for 6 hours and the baseline glucose values were determined, as described above. Subsequently, the mice received an intraperitoneal injection of 1 mU of insulin per gram of body weight, and blood glucose values were recorded at 15, 30, 60, and 120 minutes after administration. The area under the curve (AUC) of the insulin resistance test was calculated considering the glucose decrease between time T0 and T15 using the absolute glucose values, as shown in FIGS. 20A and 20B.

TNFα = assay: Circulating TNFα levels in mice fed a high-fat diet; type: in vivo, mice (C57BL/6JN); conditions: 12 weeks; versus DAG; including SEQ ID NO: 2 at low doses
Protocol: as §1, §5, §4

hTLR2 = target: T1, hTLR2 (Homo sapiens, UniProt O60603); assay: hTLR2 stimulation in HEK-Blue hTLR2 cells (NF-κβ/SEAP reporter, QUANTI-Blue); type: cell-based
T1 construct: expressed in transfected cells; host or cells: HEK-Blue hTLR2 cells
Protocol: The analysis of the biological activity of the protein of SEQ ID NO. 1 was performed via an in vitro Toll-like receptors (TLRs) recognition assay. The HEK-Blue hTLR2 cell line expressing the hTLR2 receptor was used, whose stimulation activates the NF-Kβ factor, which in turn induces the production of the reporter protein, secreted embryonic alkaline phosphatase (SEAP). The SEAP levels are quantified by a colorimetric method with the reagent QUANTI-Blue and correspond to hTLR2 stimulation levels. The HEK-Blue hTLR2 cell line was thawed and propagated to make a master cell bank. From this bank, a vial was thawed to check the correct growth of the cell line and the absence of mycoplasma contamination. The cells of the thawed vial were propagated to make a working cell bank and continue the subcultures to mount the activity assay of SEQ ID NO. 1. This consisted of a series of tests in which the cellular response was evaluated with different molecules to determine the most suitable conditions for the assay.
The determined EC50 for SEQ ID NO. 1 was 1147±211 ng/ml (35.1±6.4 nM).
The in vitro biological activity of SEQ ID NO:2, SEQ ID NO:3, SEQ ID NO:4, SEQ ID NO: 8, SEQ ID NO:9, SEQ ID NO: 10, SEQ ID NO:11, SEQ ID NO: 12, SEQ ID NO: 13, SEQ ID NO: 14, SEQ ID NO: 15, and SEQ ID NO:16 was tested via the stimulation of hTLR2 in the cultures of HEK-Blue hTLR2 cells in 96-well plates for 24 h. After collecting the supernatant, the plate was incubated with QUANTI-Blue at 37° C. for 1 h, and absorbance was measured at 620 nm.
To determine the EC50, the absorbance was plotted against the logarithm of protein concentration, and the data was adjusted to a dose-response sigmoidal ligand binding model with 4 parameters. The cell culture medium was used as a negative control, and PAM (synthetic triacylated lipopeptide (Pam3CSK4)) was used as a positive control.

adiponectin = assay: Adiponectin levels in mice fed a high-fat diet; type: in vivo, mice (C57BL/6JN); conditions: 12 weeks; fall induced by DAG
Protocol: as §1, §2
as §3, with “(low dose). […]” for “(low dose).”

IL-1B = assay: Circulating IL-1B levels in mice fed a high-fat diet; type: in vivo, mice (C57BL/6JN); conditions: 12 weeks; versus DAG; including SEQ ID NO: 2 at low doses
Protocol: as §1, §5, §4

insulin = assay: Insulin levels (secretion in response to glucose) in mice fed a high-fat diet; type: in vivo, mice (C57BL/6JN); conditions: 12 weeks; versus DAG group
Protocol: as §1, §2, §3
This means that the peptide SEQ ID NO: 3 improves insulin sensitivity, preventing insulin resistance from developing.

IL-6 = IL-6 levels in mice fed a high-fat diet; type: in vivo, mice (C57BL/6JN); conditions: 12 weeks; animals fed DAG
Protocol: as §1, §2, §3

mice fed a high-fat diet [2] = assay: Glucose tolerance test (GTT) in mice fed a high-fat diet; type: in vivo, mice (C57BL/6JN); conditions: 12 weeks; intragastric daily; SEQ ID NO: 3 2.5 μg/mouse, SEQ ID NO: 2 0.6 or 0.2 μg/mouse
Protocol: as §1, §5
The mice were subjected to fasting for 6 hours, and the baseline glucose values in the blood were determined using glucose test strips and a glucometer (Roche's ACCU-CHECK ACTIVE).
Next, the mice received an intraperitoneal injection of 1.8 mg of glucose per gram of body weight, and the blood glucose values were recorded at 15, 30, 60, and 120 minutes after administration.
FIGS. 19A and 19B show the area under the curve (AUC) of the glucose tolerance test of the mice, measured at week 0 and 12.

[3] = Body weight of mice on high-fat diet (DAG) with intragastric peptide for 12 weeks; type: in vivo, mice (C57BL/6JN)
Protocol: as §1, §2, §3
The animal weights and feed intakes were recorded weekly.
To determine the metabolic status of the animals before starting the experiment, weight, basal glucose levels, glucose tolerance, and insulin resistance were recorded.

[4] = target: T2, human Toll-like receptor 2 (hTLR2) on HEK-Blue hTLR2 cells (human (printed as hTLR2), UniProt O60603 21-784); assay: cell-based or functional assay
[5] = Aggregation during ultrafiltration / buffer change; type: physicochemical
Description: The protein of SEQ ID NO. 1, expressed in recombinant form in this invention, contains a tag of six residues of histidine at the carboxyl terminal end, allowing it to be purified by immobilized metal cation affinity chromatography (IMAC). Purification was initially evaluated with the soluble fractions of the two strains that were used for recombinant production, obtained by enzymatic lysis and sonication. The first approach with the Ni-NTA Agarose resin allowed for the recovery of 6% of the SEQ ID NO. 1 with a purity of 50-80%. An FPLC Ákta Prime chromatographic system and an XK16/20 column packed with 13 mL of Chelating Sepharose Fast Flow-Ni^+2 resin were used for purification. A minimum imidazole concentration of 30 mM was defined in both the sample to be injected and the equilibrium buffer. Elution was performed with 500 mM imidazole at 6.5 mL/min, resulting in a minimum recovery of 80% of SEQ ID No. 1 with 82% purity. The ultrafiltration of the tangential flow of SEQ ID NO. 1 during the chromatography stage, in order to concentrate and change the buffer, negatively impacted protein quality. However, the dialysis of EQ ID NO.
However, the aggregation of SEQ ID NO. […] This was corroborated by the SDSPAGE analysis, in which the remaining protein in the soluble fraction presented fragments of lower molecular weight than that of SEQ ID NO. 1, but greater than 25 kDa. On the other hand, the precipitate turned out to be denatured SEQ ID NO. 1, but not degraded.
Finally, SEQ ID NO. 4 and SEQ ID NO.

[6] = target: T2, human Toll-like receptor 2 (hTLR2) on …; assay: cell-based or functional assay; remark: listed apart in the source

T1 sequence (O60603 21-784): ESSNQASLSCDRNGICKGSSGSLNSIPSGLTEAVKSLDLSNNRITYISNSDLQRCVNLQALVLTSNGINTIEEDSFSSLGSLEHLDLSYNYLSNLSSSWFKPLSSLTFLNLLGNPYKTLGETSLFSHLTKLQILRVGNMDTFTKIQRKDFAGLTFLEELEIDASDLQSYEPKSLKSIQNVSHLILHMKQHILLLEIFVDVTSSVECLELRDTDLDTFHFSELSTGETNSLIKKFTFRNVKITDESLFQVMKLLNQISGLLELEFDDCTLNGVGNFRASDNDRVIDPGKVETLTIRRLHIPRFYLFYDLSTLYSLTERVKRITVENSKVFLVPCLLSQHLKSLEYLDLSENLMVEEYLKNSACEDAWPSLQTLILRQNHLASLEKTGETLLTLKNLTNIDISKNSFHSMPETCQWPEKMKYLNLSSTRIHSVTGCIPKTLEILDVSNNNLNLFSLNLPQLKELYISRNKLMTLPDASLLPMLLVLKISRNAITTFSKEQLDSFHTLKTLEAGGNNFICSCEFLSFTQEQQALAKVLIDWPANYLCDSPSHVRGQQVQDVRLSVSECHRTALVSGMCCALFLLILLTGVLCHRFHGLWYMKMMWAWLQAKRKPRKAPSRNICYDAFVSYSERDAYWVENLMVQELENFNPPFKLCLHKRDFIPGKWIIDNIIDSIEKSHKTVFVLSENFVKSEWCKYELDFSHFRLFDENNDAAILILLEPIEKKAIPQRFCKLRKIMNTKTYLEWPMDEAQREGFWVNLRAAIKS
T2 sequence (O60603 21-784): as above

## AMNAITGMQDYLFTVNSIRIRNERMMPPPIANPAAAK [SEQ ID NO: 2]
Adipose tissue; 12 weeks, versus DAG group
  cellular infiltrate of adipose tissue: prevented the increase in cellular infiltrate induced by DAG
Adipose tissue; SEQ ID NO:2 in high or low doses
  inflammatory process in adipose tissue: attenuate the inflammatory process in adipose tissue
leptin
  leptin secretion: decrease in leptin secretion
Mice fed a high-fat diet [1]
  insulin sensitivity (AUC of insulin resistance test) versus DAG group: improve insulin sensitivity
TNFα
  circulating levels of TNFα: prevented the increase in the circulating levels
hTLR2; HEK-Blue hTLR2 cells, 24 h
  concentration from which hTLR2 is (significantly) stimulated: 3.05 nM
  concentration giving the best hTLR2 stimulation: 305 nM
adiponectin
  adiponectin in circulation: tendency to prevent a fall of adiponectin
IL-1B
  circulating levels of IL-1B: prevented the increase in the circulating levels of IL-1B
insulin
  insulin secretion in response to glucose administration: tendency to decrease insulin secretion
IL-6
  IL-6 levels: dramatic decrease in IL-6 levels
Mice fed a high-fat diet [2]
  glucose tolerance (AUC of GTT) versus DAG group: improved glucose tolerance
[3]; 0 weeks (initial state), DAG + SEQ ID NO: 2 High dose group
  Average weight: 23.9 grams
[3]; 0 weeks (initial state), DAG + SEQ ID NO: 2 Low dose group
  Average weight: 23.8 grams
[3]; 12 weeks, DAG + SEQ ID NO: 2 High dose (0.6 μg/mouse) intragastric daily
  Average weight: 42 grams
[3]; 12 weeks, DAG + SEQ ID NO: 2 Low dose (0.2 μg/mouse) intragastric daily
  Average weight: 40.2 grams

## SEQ ID NO: 12: peptide generated by proteolysis, obtained with both trypsin and Lys-C (MQLPIETPANNPEESDEADQAPWTPMPLEIAFQGDRESVLK)
hTLR2
  stimulation of hTLR2: do not stimulate hTLR2

## SEQ ID NO: 14: peptide of the Lys-C proteolysate, passes the 5 kDa ultrafiltration membrane (PYMGK)
hTLR2
  stimulation of hTLR2: do not stimulate hTLR2

## SEQ ID NO: 16: peptide of the Lys-C proteolysate, retained at the 10 kDa cutoff (EQVFVQVSLNLVHFNQPK)
hTLR2
  stimulation of hTLR2: do not stimulate hTLR2

B1: peptide SEQ ID NO: 4 (amino terminal domain of SEQ ID NO: 1) (peptide)
chain: IVNSKRSELDKKISIAAKEIKSANAAEITPSRSSNEELEKELNRYAKAVGSLETAYKPFLASSALVPTTPTAFQNELKTFRDSLISSCKKKNILITDTSSWLGFQVYSTQAPSVQAASTLGFELKAINSLVNKLAECGLSKFIKVYRPQ
[4]
  EC50: 65.9 nM
hTLR2; HEK-Blue hTLR2 cells, 24 h
  concentration from which hTLR2 is (significantly) stimulated: 38 nM
hTLR2; maximum concentration tested (305 nM)
  relative response compared to PAM: 101%
[5]
  aggregation in ultrafiltration operations: no visible aggregation

## AMNAITGMQDYLFTVNSIRIRNERMMPPPIANPAAAK [peptide SEQ ID NO: 2]
[4]
  EC50: 24.9 nM

B2: protein of SEQ ID NO: 1 (AMUC_1100 of Akkermansia muciniphila without signal peptide, with Xa factor site and histidine tag) (ligand)
chain: MIVNSKRSELDKKISIAAKEIKSANAAEITPSRSSNEELEKELNRYAKAVGSLETAYKPFLASSALVPTTPTAFQNELKTFRDSLISSCKKKNILITDTSSWLGFQVYSTQAPSVQAASTLGFELKAINSLVNKLAECGLSKFIKVYRPQLPIETPANNPEESDEADQAPWTPMPLEIAFQGDRESVLKAMNAITGMQDYLFTVNSIRIRNERMMPPPIANPAAAKPAAAQPATGAASLTPADEAAAPAAPAIQQVIKPYMGKEQVFVQVSLNLVHFNQPKAQEPSEDIEGRHHHHHHDI
[6]
  EC50: 1.15 µg/mL
[4]
  EC50: 35.1 nM
hTLR2; 10 μg/mL, 24 h stimulation of hTLR2, 60 min QUANTI-Blue, with respect to the culture medium
  relative activation of NF-κβ: 16.6%±2.7
[5]
  aggregation in ultrafiltration operations: aggregation
